Experimental data: patent publication US20040248234A1, “Sensitive and selective in vitro assay for the detection of reactive drug intermediates” (Pfizer Inc, priority 2003, published 2004)
Read-outs that look alike come from different tables or passages of the source.

Legend:
[1] = literature reports; cited from earlier work
[2] = test system: human liver microsomal (HL-mix-13)
[3] = test system: human liver microsomal (HL-mix-13); details: 10 μM substrate, 1 mM GSH, 0.5 μM P450, NADPH generating system, HPLC/SRM

Compound | Response observed using GSH-EE as trapping agent [2] | also measured
CC(=O)Nc1ccc(O)cc1 [Acetaminophen] |  | formation of reactive species / reactive intermediates as reported [1]: have been reported to produce such species
CCN(CC)Cc1cc(Nc2ccnc3cc(Cl)ccc23)ccc1O [Amodiaquine] | Yes | 
NC(=O)N1c2ccccc2C=Cc2ccccc21 [Carbamazepine] | Yes | 
O=C(O)Cc1ccccc1Nc1c(Cl)cccc1Cl [Diclofenac] | Yes | 
COc1ccc2c(c1)c(CC(=O)O)c(C)n2C(=O)c1ccc(Cl)cc1 [Indomethacin] | No | 
CN(CCOc1ccc(CC2SC(=O)NC2=O)cc1)c1ccccn1 (stereo not drawn) [Rosiglitazone] | Yes | 
CC(=O)Oc1ccccc1C(=O)O [aspirin] |  | formation of reactive species / reactive intermediates as reported [1]: have not been reported to produce such reactive species
Felbamate |  | Response observed using GSH as trapping agent [3]: No (A response in the assay was deemed “no” if the signal to noise ratio was <10); Response observed using GSH-EE as trapping agent ([2]; 10 μM substrate, 1 mM GSH-EE, 0.5 μM P450, NADPH generating system, HPLC/SRM): Yes (A response in the assay was deemed “yes” if there were no co-eluting species contained in control (blank) samples and analyte peak to signal ratio was >10)
